Assay results as given in ChEMBL document CHEMBL5370610, “Urotensin II Receptor Modulation with 1,3,4-Benzotriazepin-2-one Tetrapeptide Mimics” (J Med Chem, 2023).
Calls of active or inactive are those of the source. The calls are words filed in the database; no cut-off is given here.

How the values were obtained:
[1] = molecular target: T1, Guanine nucleotide-binding protein G(q) subunit alpha (Homo sapiens) (UniProt P50148); test: Agonist activity at RLucII-tagged Galpha-q (unknown origin) expressed in HEK293 cells co-expressing human UT/GFP10-tagged G-gamma assessed as activation of Galpha-q at 10^-5 M by BRET assay relative to hUII; assay type: cell-based; conditions: dose 1.0 10^-5M
T1 sequence (whole entry): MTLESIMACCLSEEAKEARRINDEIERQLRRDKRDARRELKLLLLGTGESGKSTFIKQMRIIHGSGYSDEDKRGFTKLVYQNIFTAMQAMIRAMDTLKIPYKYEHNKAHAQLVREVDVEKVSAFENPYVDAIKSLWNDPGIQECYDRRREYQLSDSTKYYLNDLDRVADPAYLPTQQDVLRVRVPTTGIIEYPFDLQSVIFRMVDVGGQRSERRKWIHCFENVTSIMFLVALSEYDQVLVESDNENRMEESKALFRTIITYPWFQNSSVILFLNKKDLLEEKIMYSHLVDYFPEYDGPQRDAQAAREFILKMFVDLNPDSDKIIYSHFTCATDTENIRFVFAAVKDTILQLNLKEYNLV

[2] = Agonist activity at RLucII-tagged Galpha-13 (unknown origin) expressed in HEK293 cells co-expressing human UT/GFP10-tagged G-gamma assessed as activation of Galpha-13 by BRET assay; assay type: cell-based
Aorta [3] = test: Ex vivo modulatory effect on URP-induced contractile activity in Sprague-Dawley rat aortic ring at 10^-6 M pretreated for 30 mins followed by URP addition (reference value: 100 +/- 8 %); assay type: functional; conditions: 0.5 h, dose 1 10^-6M
[4] = molecular target: T2, Guanine nucleotide-binding protein G(q) subunit alpha (Homo sapiens, UniProt P50148); test: Agonist activity at RLucII-tagged Galpha-q (unknown origin) expressed in HEK293 cells co-expressing human UT/GFP10-tagged G-gamma assessed as activation of Galpha-q by BRET assay; assay type: cell-based
T2 sequence (P50148 whole entry): T1 sequence (whole entry)

Aorta [5] = test: Ex vivo modulatory effect on URP-induced contractile activity in Sprague-Dawley rat aortic ring (reference value: 8.06 +/- 0.27); assay type: functional, tissue-based
Aorta [6] = test: Ex vivo modulatory effect on hUII-induced contractile activity in Sprague-Dawley rat aortic ring (reference value: 8.37 +/- 0.08); assay type: functional, tissue-based
Aorta [7] = test: Ex vivo modulatory effect on hUII-induced contractile activity in Sprague-Dawley rat aortic ring at 10^-6 M pretreated for 30 mins followed by hUII addition (reference value: 100 +/- 9 %); assay type: functional; conditions: 0.5 h, dose 1 10^-6M
[8] = Agonist activity at RLucII-tagged Galpha-i (unknown origin) expressed in HEK293 cells co-expressing human UT/GFP10-tagged G-gamma assessed as activation of Galpha-i by BRET assay; assay type: cell-based
HEK293 [9] = test: Agonist activity at RLucII-tagged Galpha-13 (unknown origin) expressed in HEK293 cells co-expressing human UT/GFP10-tagged G-gamma assessed as activation of Galpha-13 at 10^-5 M by BRET assay relative to hUII; assay type: cell-based; conditions: filed as agonist, dose 1.0 10^-5M
HEK293 [10] = test: Agonist activity at RLucII-tagged Galpha-i (unknown origin) expressed in HEK293 cells co-expressing human UT/GFP10-tagged G-gamma assessed as activation of Galpha-i at 10^-5 M by BRET assay relative to hUII; assay type: cell-based; conditions: dose 1.0 10^-5M
Beta-arrestin-1 [11] = molecular target: T3, Beta-arrestin-1 (Homo sapiens, UniProt P49407); test: Agonist activity at RLucII/GFP10-tagged beta-arrestin-1 (unknown origin) recruitment expressed in HEK293 cells co-expressing human UT assessed as beta-arrestin recruitment by BRET assay; assay type: cell-based
Beta-arrestin-1 [12] = molecular target: T3, Beta-arrestin-1; test: Agonist activity at RLucII/GFP10-tagged beta-arrestin-1 (unknown origin) expressed in HEK293 cells co-expressing human UT assessed as beta-arrestin recruitment at 10^-5 M by BRET assay relative to hUII; assay type: cell-based; conditions: filed as agonist, dose 1.0 10^-5M
[13] = Antagonist activity at URP-activated RLucII-tagged Galpha-i (unknown origin) expressed in HEK293 cells co-expressing human UT/GFP10-tagged G-gamma by BRET assay (reference value: 7.10 +/- 0.19); assay type: cell-based
HEK293 [14] = test: Antagonist activity at hUII-activated RLucII-tagged Galpha-i (unknown origin) expressed in HEK293 cells co-expressing human UT/GFP10-tagged G-gamma at 10^-6 M by BRET assay (reference value: 100 +/- 5 %); assay type: cell-based; conditions: filed as antagonist, dose 1.0 10^-6M
[15] = molecular target: T2, Guanine nucleotide-binding protein G(q) subunit alpha; test: Antagonist activity at hUII-activated RLucII-tagged Galpha-q (unknown origin) expressed in HEK293 cells co-expressing human UT/GFP10-tagged G-gamma by BRET assay (reference value: 8.26 +/- 0.09); assay type: cell-based
HEK293 [16] = test: Antagonist activity at URP-activated RLucII-tagged Galpha-i (unknown origin) expressed in HEK293 cells co-expressing human UT/GFP10-tagged G-gamma at 10^-6 M by BRET assay (reference value: 100 +/- 7 %); assay type: cell-based; conditions: filed as antagonist, dose 1.0 10^-6M
[17] = Antagonist activity at hUII-activated RLucII-tagged Galpha-i (unknown origin) expressed in HEK293 cells co-expressing human UT/GFP10-tagged G-gamma by BRET assay (reference value: 7.41 +/- 0.15); assay type: cell-based
HEK293 [18] = test: Agonist activity at RLucII-tagged Galpha-i (unknown origin) expressed in HEK293 cells co-expressing human UT/GFP10-tagged G-gamma assessed as activation of Galpha-i at 10^-5 M by BRET assay; assay type: cell-based; conditions: dose 1.0 10^-5M
HEK293 [19] = test: Antagonist activity at hUII-activated RLucII-tagged Galpha-q (unknown origin) expressed in HEK293 cells co-expressing human UT/GFP10-tagged G-gamma at 10^-6 M by BRET assay (reference value: 100 +/- 4 %); assay type: cell-based; conditions: filed as antagonist, dose 1.0 10^-6M
[20] = molecular target: T1, Guanine nucleotide-binding protein G(q) subunit alpha (Homo sapiens); test: Antagonist activity at URP-activated RLucII-tagged Galpha-q (unknown origin) expressed in HEK293 cells co-expressing human UT/GFP10-tagged G-gamma at 10^-6 M by BRET assay (reference value: 100 +/- 4 %); assay type: cell-based; conditions: filed as antagonist, dose 1.0 10^-6M
[21] = molecular target: T2, Guanine nucleotide-binding protein G(q) subunit alpha; test: Antagonist activity at URP-activated RLucII-tagged Galpha-q (unknown origin) expressed in HEK293 cells co-expressing human UT/GFP10-tagged G-gamma by BRET assay (reference value: 7.33 +/- 0.10); assay type: cell-based
[22] = molecular target: T1, Guanine nucleotide-binding protein G(q) subunit alpha (Homo sapiens); test: Agonist activity at RLucII-tagged Galpha-q (unknown origin) expressed in HEK293 cells co-expressing human UT/GFP10-tagged G-gamma assessed as activation of Galpha-q at 10^-5 M by BRET assay; assay type: cell-based; conditions: dose 1.0 10^-5M

T3 sequence (P49407 whole entry): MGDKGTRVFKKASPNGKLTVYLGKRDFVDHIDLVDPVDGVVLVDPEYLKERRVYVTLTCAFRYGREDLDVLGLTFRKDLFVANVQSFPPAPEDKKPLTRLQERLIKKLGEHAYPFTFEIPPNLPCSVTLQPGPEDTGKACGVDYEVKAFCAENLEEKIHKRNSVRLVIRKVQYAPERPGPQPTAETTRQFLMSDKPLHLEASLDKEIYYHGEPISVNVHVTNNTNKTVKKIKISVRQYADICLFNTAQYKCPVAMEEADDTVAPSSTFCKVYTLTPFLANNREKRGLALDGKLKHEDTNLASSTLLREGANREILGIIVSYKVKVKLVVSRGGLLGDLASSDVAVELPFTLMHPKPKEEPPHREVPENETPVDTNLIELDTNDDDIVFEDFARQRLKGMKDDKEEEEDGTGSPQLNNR

Row | Structure (SMILES) | EC50 [2] [nM] | Emax at 1 µM (Aorta [3]) [%] | EC50 [4] [nM] | EC50 (Aorta [5]) [nM] | EC50 (Aorta [6]) [nM] | Emax at 1 µM (Aorta [7]) [%] | EC50 [8] [nM] | Emax (HEK293 [9]) [%] | Emax (HEK293 [10]; filed as agonist) [%] | EC50 (Beta-arrestin-1 [11]) [nM] | Emax (Beta-arrestin-1 [12]) [%] | EC50 [15] [nM] | Emax (HEK293 [19]) [%] | Emax [20] [%] | EC50 [21] [nM] | Activity [22] | also measured
1 | CN(Cc1ccccc1)C(=O)c1ccc2c(c1)N(Cc1ccc(-c3ccccc3)cc1)C(=O)N(CCCCN)N=C2/C=C/c1ccc(O)cc1 | 178 | 120 | > 10000 | 3.31 | 0.955 | 61 | 589 | 129 | 73 | 117 | 82 | – | – | – | – | – | Emax [1]: 37%
2 | COc1ccc(/C=C/C2=NN(CCCCN)C(=O)N(Cc3ccc(-c4ccccc4)cc3)c3cc(C(=O)NCc4ccccc4)ccc32)cc1 | 81.3 | 27 | – | 8.13 | 0.661 | 85 | – | 122 | – | 9.33 | 98 | 13.2 | 90 | 79 | 43.7 | inactive | EC50 [13]: 148 nM; Emax (HEK293 [14]): 80%; Emax (HEK293 [16]): 63%; EC50 [17]: 11.7 nM; Activity (HEK293 [18]): inactive
3 | NCCCCN1N=C(/C=C/c2ccc(O)cc2)c2ccc(C(=O)NCCCc3ccccc3)cc2N(Cc2ccc(-c3ccccc3)cc2)C1=O | 16.2 | 161 | > 10000 | 1.55 | 14.5 | 123 | 1170 | 104 | 75 | 851 | 108 | – | – | – | – | – | Emax [1]: 26%
4 | COc1ccc(/C=C/C2=NN(CCCCN)C(=O)N(Cc3ccc(-c4ccccc4)cc3)c3cc(C(=O)NCCCc4ccccc4)ccc32)cc1 | 20.9 | 77 | > 10000 | 3.72 | 0.741 | 252 | > 10000 | 103 | – | 1200 | 98 | – | – | – | – | – | Emax ([1]; filed as agonist): 54%; Emax (HEK293 [10]): 18%
5 | NCCCCN1N=C(CCc2ccc(O)cc2)c2ccc(C(=O)NCCOc3ccccc3)cc2N(Cc2ccc(-c3ccccc3)cc2)C1=O | 288 | 83 | – | 16.2 | 6.17 | 197 | > 10000 | 215 | 51 | 1780 | 198 | 6.92 | 95 | 81 | 34.7 | inactive | –
6 | CN(Cc1ccccc1)C(=O)c1ccc2c(c1)N(Cc1ccc(-c3ccccc3)cc1)C(=O)N(CCCCN)N=C2CCc1ccc(O)cc1 | 302 | 71 | – | 43.7 | 6.76 | 70 | – | 152 | – | 933 | 194 | 8.51 | 94 | 92 | 28.2 | inactive | EC50 [13]: 178 nM; Emax (HEK293 [14]): 89%; Emax (HEK293 [16]): 91%; EC50 [17]: 41.7 nM; Activity (HEK293 [18]): inactive
7 | CC(C)[C@H](NC(=O)[C@@H]1CSSC[C@H](NC(=O)[C@H](CC(=O)O)NC(=O)[C@@H]2CCCN2C(=O)[C@@H](NC(=O)[C@@H](N)CCC(=O)O)[C@@H](C)O)C(=O)N[C@@H](Cc2ccccc2)C(=O)N[C@@H](Cc2c[nH]c3ccccc23)C(=O)N[C@@H](CCCCN)C(=O)N[C@@H](Cc2ccc(O)cc2)C(=O)N1)C(=O)O [UROTENSIN-II] | 16.2 | – | 13.8 | – | – | – | 18.2 | – | – | 20.4 | – | – | – | – | – | – | –
8 | NCCCCN1N=C(CCc2ccc(O)cc2)c2ccc(C(=O)NCCCc3ccccc3)cc2N(Cc2ccc(-c3ccccc3)cc2)C1=O | 21.9 | 112 | – | 4.07 | 1.02 | 143 | > 10000 | 119 | 45 | 174 | 165 | 5.89 | 65 | 76 | 18.6 | inactive | –
9 | CC(C)[C@H](NC(=O)[C@@H]1CSSC[C@H](NC(=O)[C@H](C)N)C(=O)N[C@@H](Cc2ccccc2)C(=O)N[C@@H](Cc2c[nH]c3ccccc23)C(=O)N[C@@H](CCCCN)C(=O)N[C@@H](Cc2ccc(O)cc2)C(=O)N1)C(=O)O | – | – | 8.91 | – | – | – | – | – | – | – | – | – | – | – | – | – | Emax ([1]; filed as agonist): 101%
10 | NCCCCN1N=C(/C=C/c2ccc(O)cc2)c2ccc(C(=O)NCc3ccccc3)cc2N(Cc2ccc(-c3ccccc3)cc2)C1=O | 10.5 | 58 | – | 13.5 | 1.1 | 121 | > 10000 | 115 | – | 1230 | 275 | 7.08 | 85 | 111 | 17 | inactive | Emax (HEK293 [10]): 30%
